Results from patent US20220064214A1, “NOVEL PEPTIDES AND USES THEREOF” (CENNA BIOSCIENCES INC., priority 2019, published 2022).
“And” between values parts separate entries of the source, which are not always exact repeats. Equal entries are not always repeated. “Also recorded” adds a separate entry of the source. Where two headings read alike, the source gives them in different places. Marks after values point to notes of the source that are not given here. Square brackets hold non-standard residues; d marks the D form. Peptide text beside a SMILES is read from it.

Experiments:
[1] = Pharmacokinetics study in rats, plasma; assay type: in vivo; conditions: rat; for plasma concentration: individual rats
Protocol: (§1) An in-vivo study was carried out in rats to determine the pharmacokinetics (PK) of peptides P8, 8M1D and 8M2D in plasma and CSF. Each peptide was assessed through two dosage routes, intravenous (IV) and subcutaneous (SC). Three rats were assigned to each dose group with each peptide. Total of twelve rats per peptide were used.
Blood was collected through jugular vein cannulas, and the samples were collected into tubes with K2EDTA. After centrifuging at a temperature of 2 to 8° C. at 4,000×g for 5 minutes, the resulting plasma was split into equal aliquots, frozen, and stored at −60 to −80° C. One aliquot was for PK analysis and the other was for Aβ analysis (see Example 4).

[2] = Pharmacokinetics study in rats, CSF; assay type: in vivo; design: CSF concentration, Mean IV / CSF concentration, Mean SC: unit not given here; conditions: rat; for CSF concentration, Mean IV: 10 mg/kg IV; for CSF concentration, Mean SC: 10 mg/kg SC
Protocol: as §1
CSF collection was performed by first anesthetizing animals at specified time points (see Table 5) with a mixture of 80 mg/kg ketamine and 8 mg/kg xylazine. The depth of anesthesia was monitored by toe pinches. CSF was collected via the cisterna magna (˜0.05 mL), and it was split into equal aliquots, frozen, and stored at −60 to −80° C.

[3] = PK analysis of 8M2D in transgenic mice (APPSWE), plasma; conditions: mouse, in vivo, sc, 10 mg/kg; for AUC(0-t): read-out: AUClast; for CL/F: read-out: Cl/F; for Cmax: read-out: Cmax; for Tmax: read-out: Tmax; for Vd/F: read-out: Vz/F; for half-life: read-out: t1/2 (converted)
Description: Pharmacokinetics (PK) of 8M2D was further analyzed with various doses at days 1 and 13 in transgenic mice (APPSWE (B6; SJL 2576 Kha; Taconic)). See Hsiao et al., Correlative memory deficits, Aβ elevation, and amyloid plaques in transgenic mice. Science 274:99-102 (1996); and Haugabook et al., Reduction of Abeta accumulation in the Tg2576 animal model of Alzheimer's disease after oral administration of the phosphatidyl-inositol kinase inhibitor wortmannin. Faseb J 15:16-18 (2001).

time after dosing at which detectable in plasma ([1]; 10 mg/kg IV and SC): ≥ 6 h
exposure in plasma compared with P8 (in words) ([1]; 10 mg/kg IV and SC, at Cmax and most subsequent time points): better exposures than P8
plasma concentration ([1]; 10 mg/kg IV, 0 hr (pre-dose)): BQL
plasma concentration ([1]; 10 mg/kg IV, 0.167 hr, 10 mg/kg, in ng/mL (unit assumed)): 20,900 and 21,000 and 23,400
plasma concentration ([1]; 10 mg/kg IV, 0.5 hr, 10 mg/kg, in ng/mL (unit assumed)): 5,620 and 5,680 and 5,940
plasma concentration ([1]; 10 mg/kg IV, 1 hr, 10 mg/kg, in ng/mL (unit assumed)): 1,450 and 1,040 and 1,190
plasma concentration ([1]; 10 mg/kg IV, 2 hr, 10 mg/kg, in ng/mL (unit assumed)): 417 and 114 and 136
plasma concentration ([1]; 10 mg/kg IV, 4 hr, 10 mg/kg): 10.2 and 7.54 ^b and 8.29 ^b
plasma concentration ([1]; 10 mg/kg IV, 6 hr, 10 mg/kg): 2.09 ^b and 1.81 ^b and BQL
plasma concentration ([1]; 10 mg/kg IV, 8 hr): BQL
plasma concentration ([1]; 10 mg/kg IV, 12 hr): BQL
plasma concentration ([1]; 10 mg/kg IV, 24 hr): BQL
plasma concentration ([1]; 10 mg/kg SC, 0 hr (pre-dose)): BQL
plasma concentration ([1]; 10 mg/kg SC, 0.167 hr, 10 mg/kg, in ng/mL (unit assumed)): 16,200 and 13,500 and 13,800 ^a
plasma concentration ([1]; 10 mg/kg SC, 0.5 hr, 10 mg/kg, in ng/mL (unit assumed)): 9,030 and 9,010 and 7,190
plasma concentration ([1]; 10 mg/kg SC, 1 hr, 10 mg/kg, in ng/mL (unit assumed)): 3,250 and 4,160 and 3,110
plasma concentration ([1]; 10 mg/kg SC, 2 hr, 10 mg/kg, in ng/mL (unit assumed)): 609 and 987 and 1,040
plasma concentration ([1]; 10 mg/kg SC, 4 hr, 10 mg/kg, in ng/mL (unit assumed)): 59.2 and 82.8 and 125
plasma concentration ([1]; 10 mg/kg SC, 6 hr, 10 mg/kg): 3.77 ^b and 9.84 ^b and 21.6
plasma concentration ([1]; 10 mg/kg SC, 8 hr, 10 mg/kg): 1.61 ^b and 4.37 ^b and 5.19 ^b
plasma concentration ([1]; 10 mg/kg SC, 12 hr): BQL
plasma concentration ([1]; 10 mg/kg SC, 24 hr): BQL
CSF concentration, Mean IV ([2]; 0 hr): 0
CSF concentration, Mean IV ([2]; 0.5 hr): 104
CSF concentration, Mean IV ([2]; 1 hr): 55.6
CSF concentration, Mean IV ([2]; 2 hr): 68
CSF concentration, Mean IV ([2]; 4 hr): 11.5
CSF concentration, Mean IV ([2]; 8 hr): 1.75
CSF concentration, Mean IV ([2]; 12 hr): 0.378
CSF concentration, Mean IV ([2]; 24 hr): 1.2
CSF concentration, Mean SC ([2]; 0 hr): 0
CSF concentration, Mean SC ([2]; 0.5 hr): 59
CSF concentration, Mean SC ([2]; 1 hr): 53.4
CSF concentration, Mean SC ([2]; 2 hr): 172
CSF concentration, Mean SC ([2]; 4 hr): 13.3
CSF concentration, Mean SC ([2]; 8 hr): 15.3
CSF concentration, Mean SC ([2]; 12 hr): 0.113
CSF concentration, Mean SC ([2]; 24 hr): 0
AUC(0-t) ([3]; Day 1, 10 mg/kg): 12800 ng·h/mL
CL/F ([3]; Day 1, 10 mg/kg): 13 mL/min/kg
Cmax ([3]; Day 1, 10 mg/kg): 14400 ng/mL
Tmax ([3]; Day 1, 10 mg/kg): 0.17 h
Vd/F ([3]; Day 1, 10 mg/kg): 8.84 L/kg
half-life ([3]; Day 1, 10 mg/kg): 7.9 h
AUC(0-t) ([3]; Day 13, 10 mg/kg): 11600 ng·h/mL
CL/F ([3]; Day 13, 10 mg/kg): 14.1 mL/min/kg
Cmax ([3]; Day 13, 10 mg/kg): 12400 ng/mL
Tmax ([3]; Day 13, 10 mg/kg): 0.17 h
Vd/F ([3]; Day 13, 10 mg/kg): 10.2 L/kg
half-life ([3]; Day 13, 10 mg/kg): 8.4 h
Compound: CC(=O)N[C@H](CC(=O)O)C(=O)N[C@@H](CCC(=O)O)C(=O)N[C@@H](CCC(=O)O)C(=O)N[C@@H](CCC(=O)O)C(=O)N[C@@H](CC(=O)O)C(=O)N[C@@H](CCC(=O)O)C(=O)N[C@@H](CCC(=O)O)C(=O)N[C@@H](CC(C)C)C(N)=O [8M2D, Ac-dEEEDEEL-NH2] (Ac-[dD]EEEDEEL-NH2)
exposure in CSF compared with P8 (in words) ([2]; 10 mg/kg IV and SC, at Cmax and most subsequent time points, 10 mg/kg): better exposures than P8; also recorded: higher exposure than P8
